{"source": "paper PMC11456916", "about": "“A screen for cell envelope stress uncovers an inhibitor of prolipoprotein diacylglyceryl transferase, Lgt, in Escherichiacoli” (iScience, 2024)", "key": {"[1]": {"tested_on": "E. coli and the Gram-positive organisms Staphylococcus aureus and Bacillus subtilis", "experiment": "Growth inhibition in dose of E. coli and Gram-positive organisms", "format": "cell-based", "details": "tested in dose against E. coli, S. aureus and B. subtilis", "protocol": "Of these 24 compounds, six were prioritized for further follow-up based on structural novelty relative to known antibacterial scaffolds and were tested in dose for growth inhibition of E. coli and the Gram-positive organisms Staphylococcus aureus and Bacillus subtilis (Figure S5). We hypothesized that compounds active against E. coli, but not the Gram-positive organisms, might target processes involved in the Gram-negative outer-membrane synthesis, many of which were identified as possible targets in our genetic screen. Importantly, these processes are either absent or not essential for growth in Gram-positive organisms, offering promise for narrow-spectrum applications.\nFor MIC assays, cultures of bacteria were grown in LB broth. Overnight cultures were diluted (1:100) into fresh LB media and grown to the mid-log phase of growth (OD600 ∼0.5). Subcultures were then normalized to an OD600 of 0.1, and diluted (1:5000) into assay media. Assay plates were then incubated for 18 h at 37°C, then OD600 was measured using a Biotek Neo plate reader."}, "[2]": {"tested_on": "356 CRISPRi constructs in E. coli ΔtolC-pore", "experiment": "CRISPRi collection fitness screen with sub-inhibitory compound", "format": "cell-based", "details": "sub-inhibitory (¼ MIC) concentration, LB agar, basal knockdown", "outline": "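Mobile CRISPRi collection conjugated into the ΔtolC-pore strain and pinned on agar at 1536 density in technical quadruplicate with a sub-inhibitory MAC-0452936 concentration. No CRISPRi induction; only basal 5–10% knockdown.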"}}, "data": [{"compound": "COc1ccc(C(=O)O/N=C(\\c2cccs2)C(C)(C)C)cc1", "note": "[MAC-0452936, (Z)-2-Pivaloylthiophene O-(4-methoxybenzoyl) oxime]", "values": [{"measurement": "spectrum of growth inhibition, E. coli versus Gram-positive organisms", "setting": "[1]", "value": "specifically inhibit E. coli"}, {"measurement": "growth defect of the lgt CRISPRi mutant in the presence of compound", "setting": "[2]", "value": "considerable growth defect"}]}]}
